Experiments:
lambsquarters [1] = assay: Test Example 4: herbicidal effect by soil treatment (Table 19, symbol O); format: in vivo, lambsquarters (Chenopodium album)
How it was run: (§1)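 Herbicidal effect was rated 3 weeks after treatment, using the scoring criteria of an earlier test. The compound, formulated as an emulsion and diluted in water to a set herbicide amount, had been sprayed uniformly on soil over freshly sown seeds. Growth took place in a greenhouse at 25° C. to 30° C.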

false cleavers [2] = assay: Test Example 5: herbicidal effect by foliage application, plastic box (Table 20, symbol Q); format: in vivo, false cleavers (Galium spurium); conditions: foliage application, three weeks after application
How it was run: (§2)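 Foliar spray test: emulsion formulation diluted in water to a set application rate, sprayed onto 14-day-old plants raised in diluvial soil at 25° C to 30° C under glass. Both herbicidal effect and crop effect rated visually three weeks later.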

Chinese sprangletop = assay: Test Example 3: herbicidal effect by foliage application, Wagner pot (Table 18, symbol D); format: in vivo, chinese sprangletop (Leptochloa chinensis)
How it was run: (§3)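 Plants were sown in alluvial soil held under 0.1–0.5 cm standing water and grown 14 days in a greenhouse at 25–30 °C. An emulsifiable formulation, water-diluted to the set dose, was then sprayed onto the foliage, and effects were scored three weeks later using previously defined criteria.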

redroot pigweed [3] = assay: Test Example 4: herbicidal effect by soil treatment (Table 19, symbol N); format: in vivo, redroot pigweed (Amaranthus retroflexus)
How it was run: as §1

persian speedwell [4] = assay: Test Example 4: herbicidal effect by soil treatment (Table 19, symbol R); format: in vivo, Persian speedwell (Veronica persica)
How it was run: as §1

wild oat [5] = assay: Test Example 4: herbicidal effect by soil treatment (Table 19, symbol I); format: in vivo, wild oat (Avena fatua)
How it was run: as §1

redroot pigweed [6] = assay: Test Example 5: herbicidal effect by foliage application, plastic box (Table 20, symbol N); format: in vivo, redroot pigweed (Amaranthus retroflexus); conditions: foliage application, three weeks after application
How it was run: as §2

southern crabgrass [7] = assay: Test Example 5: herbicidal effect by foliage application, plastic box (Table 20, symbol F); format: in vivo, southern crabgrass (Digitaria ciliaris); conditions: foliage application, three weeks after application
How it was run: as §2

rice flat sedge = assay: Test Example 3: herbicidal effect by foliage application, Wagner pot (Table 18, symbol E); format: in vivo, rice flat sedge (Cyperus iria)
How it was run: as §3

barnyard grass [8] = assay: Test Example 3: herbicidal effect by foliage application, Wagner pot (Table 18, symbol H); format: in vivo, barnyard grass (Echinochloa crus-galli)
How it was run: as §3

Italian ryegrass [9] = assay: Test Example 4: herbicidal effect by soil treatment (Table 19, symbol K); format: in vivo, Italian ryegrass (Lolium multiflorum)
How it was run: as §1

persian speedwell [10] = assay: Test Example 5: herbicidal effect by foliage application, plastic box (Table 20, symbol R); format: in vivo, Persian speedwell (Veronica persica); conditions: foliage application, three weeks after application
How it was run: as §2

barnyard grass [11] = assay: Test Example 5: herbicidal effect by foliage application, plastic box (Table 20, symbol H); format: in vivo, barnyard grass (Echinochloa crus-galli); conditions: foliage application, three weeks after application
How it was run: as §2

blackgrass [12] = assay: Test Example 4: herbicidal effect by soil treatment (Table 19, symbol J); format: in vivo, blackgrass (Alopecurus myosuroides)
How it was run: as §1

barnyard grass [13] = assay: Test Example 4: herbicidal effect by soil treatment (Table 19, symbol H); format: in vivo, barnyard grass (Echinochloa crus-galli)
How it was run: as §1

chickweed [14] = assay: Test Example 4: herbicidal effect by soil treatment (Table 19, symbol P); format: in vivo, common chickweed (Stellaria media)
How it was run: as §1

false cleavers [15] = assay: Test Example 4: herbicidal effect by soil treatment (Table 19, symbol Q); format: in vivo, false cleavers (Galium spurium)
How it was run: as §1

green foxtail [16] = assay: Test Example 5: herbicidal effect by foliage application, plastic box (Table 20, symbol G); format: in vivo, green foxtail (Setaria viridis); conditions: foliage application, three weeks after application
How it was run: as §2

Italian ryegrass [17] = assay: Test Example 5: herbicidal effect by foliage application, plastic box (Table 20, symbol K); format: in vivo, Italian ryegrass (Lolium multiflorum); conditions: foliage application, three weeks after application
How it was run: as §2

lambsquarters [18] = assay: Test Example 5: herbicidal effect by foliage application, plastic box (Table 20, symbol O); format: in vivo, lambsquarters (Chenopodium album); conditions: foliage application, three weeks after application
How it was run: as §2

southern crabgrass [19] = assay: Test Example 4: herbicidal effect by soil treatment (Table 19, symbol F); format: in vivo, southern crabgrass (Digitaria ciliaris)
How it was run: as §1

green foxtail [20] = assay: Test Example 4: herbicidal effect by soil treatment (Table 19, symbol G); format: in vivo, green foxtail (Setaria viridis)
How it was run: as §1

velvetleaf [21] = assay: Test Example 4: herbicidal effect by soil treatment (Table 19, symbol M); format: in vivo, velvetleaf (Abutilon theophrasti)
How it was run: as §1

chickweed [22] = assay: Test Example 5: herbicidal effect by foliage application, plastic box (Table 20, symbol P); format: in vivo, common chickweed (Stellaria media); conditions: foliage application, three weeks after application
How it was run: as §2

velvetleaf [23] = assay: Test Example 5: herbicidal effect by foliage application, plastic box (Table 20, symbol M); format: in vivo, velvetleaf (Abutilon theophrasti); conditions: foliage application, three weeks after application
How it was run: as §2

blackgrass [24] = assay: Test Example 5: herbicidal effect by foliage application, plastic box (Table 20, symbol J); format: in vivo, blackgrass (Alopecurus myosuroides); conditions: foliage application, three weeks after application
How it was run: as §2

windgrass [25] = assay: Test Example 5: herbicidal effect by foliage application, plastic box (Table 20, symbol L); format: in vivo, windgrass (Apera spica-venti); conditions: foliage application, three weeks after application
How it was run: as §2

wild oat [26] = assay: Test Example 5: herbicidal effect by foliage application, plastic box (Table 20, symbol I); format: in vivo, wild oat (Avena fatua); conditions: foliage application, three weeks after application
How it was run: as §2

windgrass [27] = assay: Test Example 4: herbicidal effect by soil treatment (Table 19, symbol L); format: in vivo, windgrass (Apera spica-venti)
How it was run: as §1

[28] = amount of applied herbicide 320 g/ha
[29] = amount of applied herbicide 144 g/ha

CCCC(=O)Oc1c(C)nn(C)c(=O)c1-c1c(-c2cc(C)c(OC)c(C)c2)sc2ccccc12 [1-075]
herbicidal effect rating, O: lambsquarters (lambsquarters [1]; [28]): 0 (Herbicidal rate of 5% or less (almost no effect))
herbicidal effect grade, Q: false cleavers (false cleavers [2]; 320 g/ha): 0 (Herbicidal rate of 5% or less (almost no effect))
herbicidal effect on D (Chinese sprangletop), rating 0-5 (Chinese sprangletop; 320 g/ha): 0 (Herbicidal rate of 5% or less (almost no effect))
herbicidal effect rating, N: redroot pigweed (redroot pigweed [3]; [28]): 0 (Herbicidal rate of 5% or less (almost no effect))
herbicidal effect rating, R: persian speedwell (persian speedwell [4]; [28]): 3 (Herbicidal rate of 40% or more and less than 70%)
herbicidal effect rating, I: wild oat (wild oat [5]; [28]): 0 (Herbicidal rate of 5% or less (almost no effect))
herbicidal effect grade, N: redroot pigweed (redroot pigweed [6]; 320 g/ha): 3 (Herbicidal rate of 40% or more and less than 70%)
herbicidal effect grade, F: southern crabgrass (southern crabgrass [7]; 320 g/ha): 0 (Herbicidal rate of 5% or less (almost no effect))
herbicidal effect on E (rice flat sedge), rating 0-5 (rice flat sedge; 320 g/ha): 5 (Herbicidal rate of 90% or more (almost completely withered))
herbicidal effect on H (barnyard grass), rating 0-5 (barnyard grass [8]; 320 g/ha): 3 (Herbicidal rate of 40% or more and less than 70%)
herbicidal effect rating, K: Italian ryegrass (Italian ryegrass [9]; [28]): 0 (Herbicidal rate of 5% or less (almost no effect))
herbicidal effect grade, R: persian speedwell (persian speedwell [10]; 320 g/ha): 5 (Herbicidal rate of 90% or more (almost completely withered))
herbicidal effect grade, H: barnyard grass (barnyard grass [11]; 320 g/ha): 0 (Herbicidal rate of 5% or less (almost no effect))
herbicidal effect rating, J: blackgrass (blackgrass [12]; [28]): 0 (Herbicidal rate of 5% or less (almost no effect))
herbicidal effect rating, H: barnyard grass (barnyard grass [13]; [28]): 1 (Herbicidal rate of 5% or more and less than 20%)
herbicidal effect rating, P: chickweed (chickweed [14]; [28]): 0 (Herbicidal rate of 5% or less (almost no effect))
herbicidal effect rating, Q: false cleavers (false cleavers [15]; [28]): 0 (Herbicidal rate of 5% or less (almost no effect))
herbicidal effect grade, G: green foxtail (green foxtail [16]; 320 g/ha): 0 (Herbicidal rate of 5% or less (almost no effect))
herbicidal effect grade, K: Italian ryegrass (Italian ryegrass [17]; 320 g/ha): 3 (Herbicidal rate of 40% or more and less than 70%)
herbicidal effect grade, O: lambsquarters (lambsquarters [18]; 320 g/ha): 0 (Herbicidal rate of 5% or less (almost no effect))
herbicidal effect rating, F: southern crabgrass (southern crabgrass [19]; [28]): 0 (Herbicidal rate of 5% or less (almost no effect))
herbicidal effect rating, G: green foxtail (green foxtail [20]; [28]): 0 (Herbicidal rate of 5% or less (almost no effect))
herbicidal effect rating, M: velvetleaf (velvetleaf [21]; [28]): 0 (Herbicidal rate of 5% or less (almost no effect))
herbicidal effect grade, P: chickweed (chickweed [22]; 320 g/ha): 0 (Herbicidal rate of 5% or less (almost no effect))
herbicidal effect grade, M: velvetleaf (velvetleaf [23]; 320 g/ha): 0 (Herbicidal rate of 5% or less (almost no effect))
herbicidal effect grade, J: blackgrass (blackgrass [24]; 320 g/ha): 0 (Herbicidal rate of 5% or less (almost no effect))
herbicidal effect grade, L: windgrass (windgrass [25]; 320 g/ha): 0 (Herbicidal rate of 5% or less (almost no effect))
herbicidal effect grade, I: wild oat (wild oat [26]; 320 g/ha): 0 (Herbicidal rate of 5% or less (almost no effect))
herbicidal effect rating, L: windgrass (windgrass [27]; [28]): 0 (Herbicidal rate of 5% or less (almost no effect))

Cc1nn(C)c(=O)c(-c2c(-c3ccc(C(F)(F)F)nc3)sc3ccccc23)c1O [1-078]
herbicidal effect rating, O: lambsquarters (lambsquarters [1]; [29]): 3 (Herbicidal rate of 40% or more and less than 70%)
herbicidal effect grade, Q: false cleavers (false cleavers [2]; 144 g/ha): 1 (Herbicidal rate of 5% or more and less than 20%)
herbicidal effect on D (Chinese sprangletop), rating 0-5 (Chinese sprangletop; 144 g/ha): 0 (Herbicidal rate of 5% or less (almost no effect))
herbicidal effect rating, N: redroot pigweed (redroot pigweed [3]; [29]): 0 (Herbicidal rate of 5% or less (almost no effect))
herbicidal effect rating, R: persian speedwell (persian speedwell [4]; [29]): 2 (Herbicidal rate of 20% or more and less than 40%)
herbicidal effect rating, I: wild oat (wild oat [5]; [29]): 0 (Herbicidal rate of 5% or less (almost no effect))
herbicidal effect grade, N: redroot pigweed (redroot pigweed [6]; 144 g/ha): 0 (Herbicidal rate of 5% or less (almost no effect))
herbicidal effect grade, F: southern crabgrass (southern crabgrass [7]; 144 g/ha): 0 (Herbicidal rate of 5% or less (almost no effect))
herbicidal effect on E (rice flat sedge), rating 0-5 (rice flat sedge; 144 g/ha): 3 (Herbicidal rate of 40% or more and less than 70%)
herbicidal effect on H (barnyard grass), rating 0-5 (barnyard grass [8]; 144 g/ha): 1 (Herbicidal rate of 5% or more and less than 20%)
herbicidal effect rating, K: Italian ryegrass (Italian ryegrass [9]; [29]): 0 (Herbicidal rate of 5% or less (almost no effect))
herbicidal effect grade, R: persian speedwell (persian speedwell [10]; 144 g/ha): 5 (Herbicidal rate of 90% or more (almost completely withered))
herbicidal effect grade, H: barnyard grass (barnyard grass [11]; 144 g/ha): 0 (Herbicidal rate of 5% or less (almost no effect))
herbicidal effect rating, J: blackgrass (blackgrass [12]; [29]): 0 (Herbicidal rate of 5% or less (almost no effect))
herbicidal effect rating, H: barnyard grass (barnyard grass [13]; [29]): 2 (Herbicidal rate of 20% or more and less than 40%)
herbicidal effect rating, P: chickweed (chickweed [14]; [29]): 0 (Herbicidal rate of 5% or less (almost no effect))
herbicidal effect rating, Q: false cleavers (false cleavers [15]; [29]): 0 (Herbicidal rate of 5% or less (almost no effect))
herbicidal effect grade, G: green foxtail (green foxtail [16]; 144 g/ha): 0 (Herbicidal rate of 5% or less (almost no effect))
herbicidal effect grade, K: Italian ryegrass (Italian ryegrass [17]; 144 g/ha): 0 (Herbicidal rate of 5% or less (almost no effect))
herbicidal effect grade, O: lambsquarters (lambsquarters [18]; 144 g/ha): 2 (Herbicidal rate of 20% or more and less than 40%)
herbicidal effect rating, F: southern crabgrass (southern crabgrass [19]; [29]): 0 (Herbicidal rate of 5% or less (almost no effect))
herbicidal effect rating, G: green foxtail (green foxtail [20]; [29]): 0 (Herbicidal rate of 5% or less (almost no effect))
herbicidal effect rating, M: velvetleaf (velvetleaf [21]; [29]): 0 (Herbicidal rate of 5% or less (almost no effect))
herbicidal effect grade, P: chickweed (chickweed [22]; 144 g/ha): 5 (Herbicidal rate of 90% or more (almost completely withered))
herbicidal effect grade, M: velvetleaf (velvetleaf [23]; 144 g/ha): 5 (Herbicidal rate of 90% or more (almost completely withered))
herbicidal effect grade, J: blackgrass (blackgrass [24]; 144 g/ha): 0 (Herbicidal rate of 5% or less (almost no effect))
herbicidal effect grade, L: windgrass (windgrass [25]; 144 g/ha): 0 (Herbicidal rate of 5% or less (almost no effect))
herbicidal effect grade, I: wild oat (wild oat [26]; 144 g/ha): 0 (Herbicidal rate of 5% or less (almost no effect))
herbicidal effect rating, L: windgrass (windgrass [27]; [29]): 0 (Herbicidal rate of 5% or less (almost no effect))
